Experimental data reported in US20250018047A1, “METHODS AND COMPOSITIONS FOR TARGETED PROTEIN DEGRADATION” (Ranok Therapeutics (Hangzhou) Co. Ltd., priority 2021, published 2025).
Counter-ions that a name gives are not always drawn.

Assays:
[1] = system: AsPC-1 human pancreatic adenocarcinoma; experiment: CellTiter-Glo cancer cell line proliferation assay, AsPC-1; type: cell-based; conditions: Homo sapiens, ASPC1, 24 hr
Procedure, shortened: (§1)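 Cells plated at 4,000/well, grown 24 h at 37 °C/5% CO2, then exposed to compound concentration series (0.5% DMSO final) for 24 h. Viability read by CellTiter-Glo luminescence; IC50 values calculated.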

[2] = system: A-427 human lung carcinoma; experiment: CellTiter-Glo cancer cell line proliferation assay, A-427; type: cell-based; conditions: Homo sapiens, A-427, 24 hr, read-out: A427 at 24 hrs, IC50
Procedure, shortened: as §1

[3] = target: BA/F3-KRAS(G12D) murine pro-B cell line stably expressing KRAS(G12D) (Homo sapiens, UniProt P01116, G12D, cells depend on it); experiment: CellTiter-Glo cancer cell line proliferation assay, BA/F3-KRAS(G12D); type: cell-based; conditions: 24 hr, read-out: BAF3 at 24 hrs, IC50
BA/F3-KRAS(G12D) murine pro-B cell line stably expressing KRAS(G12D), sequence (P01116 whole entry G12D): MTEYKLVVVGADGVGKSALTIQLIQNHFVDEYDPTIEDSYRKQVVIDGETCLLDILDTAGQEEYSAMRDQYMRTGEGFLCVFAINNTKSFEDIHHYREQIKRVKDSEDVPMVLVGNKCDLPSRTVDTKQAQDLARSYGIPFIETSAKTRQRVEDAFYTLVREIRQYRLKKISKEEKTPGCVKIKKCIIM
Experimental: The following cancer cell lines were employed: AsPC-1 human pancreatic adenocarcinoma (ATCC, #CRL-1682); A-427 human lung carcinoma (ATCC, #HTB-53); BA/F3-KRAS(G12D) murine pro-B cell line stably expressing KRAS(G12D) (Precedo, Hefei, China). Cell lines were cultured according to ATCC and recommendations. BA/F3-KRAS(G12D) cells were cultured in RPMI 1640 media with 10% fetal calf serum, 100 units/mL penicillin and […] streptomycin, and 1% glutamine.
CellTiter-Glo® Reagent Cancer Cell Line Proliferation Assays
Cells were plated in 96-well tissue culture plates at 4,000 cells/well and incubated at 37° C./5% CO2 for 24 hr in 100 μl of media. 3-fold serial dilutions of each test compound were prepared ranging from 20 μM to 1.02 nM. Cells were then treated with test compounds at various concentrations with a final concentration of 0.5% DMSO/well, and then incubated at 37° C./5% CO2 for 24 hr. 100 μl of CellTiter-Glo® Reagent (Promega Corporation, Madison, WI) was added to each well and processed according manufacturer's protocol. Results were analyzed and IC50-values were calculated in GraphPad 7 software.

KRAS(G12D)/SOS1 = target: T1, KRAS(G12D)/SOS1 (Homo sapiens, UniProt P01116, G12D); experiment: KRAS(G12D)/SOS1 homogeneous time-resolved fluorescence (HTRF) assay; type: binding; conditions: absence of GTP, 4° C. for 3 hr
T1 construct: purchased Cisbio 63ADK000CB16PEG
T1 sequence (P01116 1-188 isoform P01116-2 G12D): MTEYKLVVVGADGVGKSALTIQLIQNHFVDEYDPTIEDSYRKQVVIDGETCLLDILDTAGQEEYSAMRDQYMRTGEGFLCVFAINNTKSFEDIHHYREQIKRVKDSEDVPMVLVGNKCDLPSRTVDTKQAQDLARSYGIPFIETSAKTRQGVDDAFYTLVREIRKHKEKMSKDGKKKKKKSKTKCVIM
Experimental: The test compound was mixed and incubated with reaction components, incubated in a sealed plate at 4° C. for 3 hr and fluorescence was measured using a PerkinElmer Envision plate reader.

Row | Compound | IC50 [1] | IC50 [2] | GI50 [3] | IC50 (KRAS(G12D)/SOS1)
1 | Cc1ncsc1-c1ccc(CNC(=O)[C@@H]2C[C@@H](O)CN2C(=O)[C@@H](NC(=O)CCNC(=O)C2CCN([C@H]3C[C@@H](COc4nc(N5CC6CCC(C5)N6)c5cnc(-c6cccc7cccc(Cl)c67)c(F)c5n4)N(C)C3)CC2)C(C)(C)C)cc1 [Compound 27, 1-((3S,5S)-5-(((4-(3,8-diazabicyclo[3.2.1]octan-3-yl)-7-(8-chloronaphthalen-1-yl)-8-fluoropyrido[4,3-d]pyrimidin-2-yl)oxy)methyl)-1-methylpyrrolidin-3-yl)-N-(3-(((S)-1-((2S,4R)-4-hydroxy-2-((4-(4-methylthiazol-5-yl)benzyl)carbamoyl)pyrrolidin-1-yl)-3,3-dimethyl-1-oxobutan-2-yl)amino)-3-oxopropyl)piperidine-4-carboxamide formate] | > 1 µM | > 1 µM | > 1 µM | 0.1 to 1 µM
2 | CN1C[C@@H](N2CCC(C(=O)NCCOc3ccc4c(c3)C(=O)N(C3CCC(=O)NC3=O)C4=O)CC2)C[C@H]1COc1nc(N2CC3CCC(C2)N3)c2cnc(-c3cccc4cccc(Cl)c34)c(F)c2n1 (stereo partly drawn) [Compound 12, 1-((3S,5S)-5-(((4-(3,8-diazabicyclo[3.2.1]octan-3-yl)-7-(8-chloronaphthalen-1-yl)-8-fluoropyrido[4,3-d]pyrimidin-2-yl)oxy)methyl)-1-methylpyrrolidin-3-yl)-N-(2-((2-(2,6-dioxopiperidin-3-yl)-1,3-dioxoisoindolin-5-yl)oxy)ethyl)piperidine-4-carboxamide hydrochloride] | > 1 µM | > 1 µM | > 1 µM | 0.1 to 1 µM
3 | C#Cc1cccc2cccc(-c3ncc4c(N5CC6CCC(C5)N6)nc(OC[C@@H]5C[C@H](N6CCN(C(=O)C7CCN(c8ccc9c(c8)C(=O)N(C8CCC(=O)NC8=O)C9=O)CC7)CC6)CN5C)nc4c3F)c12 (stereo partly drawn) [Compound 8, 5-(4-(4-((3S,5S)-5-(((4-(3,8-diazabicyclo[3.2.1]octan-3-yl)-7-(8-ethynylnaphthalen-1-yl)-8-fluoropyrido[4,3-d]pyrimidin-2-yl)oxy)methyl)-1-methylpyrrolidin-3-yl)piperazine-1-carbonyl)piperidin-1-yl)-2-(2,6-dioxopiperidin-3-yl)isoindoline-1,3-dione hydrochloride] | > 1 µM | > 1 µM | > 1 µM | < 0.1 µM
4 | CN1C[C@@H](N2CCC(C(=O)Nc3ccc4c(c3)C(=O)N(C3CCC(=O)NC3=O)C4=O)CC2)C[C@H]1COc1nc(N2CC3CCC(C2)N3)c2cnc(-c3cccc4cccc(Cl)c34)c(F)c2n1 (stereo partly drawn) [Compound 10, 1-((3S,5S)-5-(((4-(3,8-diazabicyclo[3.2.1]octan-3-yl)-7-(8-chloronaphthalen-1-yl)-8-fluoropyrido[4,3-d]pyrimidin-2-yl)oxy)methyl)-1-methylpyrrolidin-3-yl)-N-(2-(2,6-dioxopiperidin-3-yl)-1,3-dioxoisoindolin-5-yl)piperidine-4-carboxamide formate] | > 1 µM | > 1 µM | > 1 µM | < 0.1 µM
5 | CN1C[C@@H](N2CCC(C(=O)N3CCN(c4ccc5c(c4)C(=O)N(C4CCC(=O)NC4=O)C5=O)CC3)CC2)C[C@H]1COc1nc(N2CC3CCC(C2)N3)c2cnc(-c3cccc4cccc(Cl)c34)c(F)c2n1 (stereo partly drawn) [Compound 9, 5-(4-(1-((3S,5S)-5-(((4-(3,8-diazabicyclo[3.2.1]octan-3-yl)-7-(8-chloronaphthalen-1-yl)-8-fluoropyrido[4,3-d]pyrimidin-2-yl)oxy)methyl)-1-methylpyrrolidin-3-yl)piperidine-4-carbonyl)piperazin-1-yl)-2-(2,6-dioxopiperidin-3-yl)isoindoline-1,3-dione hydrochloride] | > 1 µM | > 1 µM | > 1 µM | < 0.1 µM
6 | C#Cc1cccc2cccc(-c3ncc4c(N5CC6CCC(C5)N6)nc(OCC5(CN6CCN(Cc7ccc8c(c7)C(=O)N(C7CCC(=O)NC7=O)C8=O)CC6)CC5)nc4c3F)c12 (stereo not drawn) [Compound 28, 5-((4-((1-(((4-(3,8-diazabicyclo[3.2.1]octan-3-yl)-7-(8-ethynylnaphthalen-1-yl)-8-fluoropyrido[4,3-d]pyrimidin-2-yl)oxy)methyl)cyclopropyl)methyl)piperazin-1-yl)methyl)-2-(2,6-dioxopiperidin-3-yl)isoindoline-1,3-dione formate] | > 1 µM | > 1 µM | > 1 µM | < 0.1 µM
7 | C#Cc1cccc2cccc(-c3ncc4c(N5CC6CCC(C5)N6)nc(OCCN5CCN(Cc6ccc7c(c6)C(=O)N(C6CCC(=O)NC6=O)C7=O)CC5)nc4c3F)c12 (stereo not drawn) [Compound 2, 5-((4-(2-((4-(3,8-diazabicyclo[3.2.1]octan-3-yl)-7-(8-ethynylnaphthalen-1-yl)-8-fluoropyrido[4,3-d]pyrimidin-2-yl)oxy)ethyl)piperazin-1-yl)methyl)-2-(2,6-dioxopiperidin-3-yl)isoindoline-1,3-dione hydrochloride] | > 1 µM | > 1 µM | > 1 µM | < 0.1 µM
8 | C#Cc1cccc2cccc(-c3ncc4c(N5CC6CCC(C5)N6)nc(OC[C@@H]5C[C@H](N6CCN(CC7CCN(c8ccc9c(c8)C(=O)N(C8CCC(=O)NC8=O)C9=O)CC7)CC6)CN5C)nc4c3F)c12 (stereo partly drawn) [Compound 5, 5-(4-((4-((3S,5S)-5-(((4-(3,8-diazabicyclo[3.2.1]octan-3-yl)-7-(8-ethynylnaphthalen-1-yl)-8-fluoropyrido[4,3-d]pyrimidin-2-yl)oxy)methyl)-1-methylpyrrolidin-3-yl)piperazin-1-yl)methyl)piperidin-1-yl)-2-(2,6-dioxopiperidin-3-yl)isoindoline-1,3-dione hydrochloride] | > 1 µM | > 1 µM | 0.1 to 1 µM | < 0.1 µM
9 | C#Cc1cccc2cccc(-c3ncc4c(N5CC6CCC(C5)N6)nc(OCC5(CN6CCN(Cc7ccc8c(c7)CN(C7CCC(=O)NC7=O)C8=O)CC6)CC5)nc4c3F)c12 (stereo not drawn) [Compound 31, 3-(5-((4-((1-(((4-(3,8-diazabicyclo[3.2.1]octan-3-yl)-7-(8-ethynylnaphthalen-1-yl)-8-fluoropyrido[4,3-d]pyrimidin-2-yl)oxy)methyl)cyclopropyl)methyl)piperazin-1-yl)methyl)-1-oxoisoindolin-2-yl)piperidine-2,6-dione formate] | > 1 µM | > 1 µM | > 1 µM | < 0.1 µM
10 | C#Cc1cccc2cccc(-c3ncc4c(N5CC6CCC(C5)N6)nc(OCC5(CN6CCN(C(=O)C7CCN(c8ccc9c(c8)C(=O)N(C8CCC(=O)NC8=O)C9=O)CC7)CC6)CC5)nc4c3F)c12 (stereo not drawn) [Compound 30, 5-(4-(4-((1-(((4-(3,8-diazabicyclo[3.2.1]octan-3-yl)-7-(8-ethynylnaphthalen-1-yl)-8-fluoropyrido[4,3-d]pyrimidin-2-yl)oxy)methyl)cyclopropyl)methyl)piperazine-1-carbonyl)piperidin-1-yl)-2-(2,6-dioxopiperidin-3-yl)isoindoline-1,3-dione formate] | > 1 µM | > 1 µM | > 1 µM | < 0.1 µM
11 | C#Cc1cccc2cccc(-c3ncc4c(N5CC6CCC(C5)N6)nc(OCCN5CCN(C(=O)C6CCN(c7ccc8c(c7)CN(C7CCC(=O)NC7=O)C8=O)CC6)CC5)nc4c3F)c12 (stereo not drawn) [Compound 17, 3-(5-(4-(4-(2-((4-(3,8-diazabicyclo[3.2.1]octan-3-yl)-7-(8-ethynylnaphthalen-1-yl)-8-fluoropyrido[4,3-d]pyrimidin-2-yl)oxy)ethyl)piperazine-1-carbonyl)piperidin-1-yl)-1-oxoisoindolin-2-yl)piperidine-2,6-dione formate] | > 1 µM | > 1 µM | > 1 µM | < 0.1 µM
12 | CN1C[C@@H](N2CCC(C(=O)Nc3ccc4c(c3)C(=O)N(C3CCC(=O)NC3=O)C4=O)CC2)C[C@H]1COc1nc(N2CC3CCC(C2)N3)c2cnc(-c3cccc4ccccc34)c(F)c2n1 (stereo partly drawn) [Compound 25, 1-((3S,5S)-5-(((4-(3,8-diazabicyclo[3.2.1]octan-3-yl)-8-fluoro-7-(naphthalen-1-yl)pyrido[4,3-d]pyrimidin-2-yl)oxy)methyl)-1-methylpyrrolidin-3-yl)-N-(2-(2,6-dioxopiperidin-3-yl)-1,3-dioxoisoindolin-5-yl)piperidine-4-carboxamide formate] | > 1 µM | > 1 µM | > 1 µM | < 0.1 µM
